For orientation: pIC50 means −log10 of the IC50, conventionally taken in molar units.

Among the data in US20230031406A1, “COMPOUNDS AND COMPOSITIONS FOR TREATING CONDITIONS ASSOCIATED WITH NLRP ACTIVITY” (Novartis AG, priority 2018, published 2023) are IC50 values, retold here.

pIC50: −log10 of the molar value. Like-named read-outs stand apart in the source and are kept apart here.

The test system of the test is PMA-differentiated THP-1 cells. The experiment in a line: IL-1β production in PMA-differentiated THP-1 cells stimulated with gramicidin (hTHP-1 assay containing 2% fetal bovine serum; Procedures 1 and 2). Format: cell-based, human. The conditions noted are these: 2% fetal bovine serum. The essentials:
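PMA 20 ng/ml 16-18 h → trypsinise → 50,000 cells/well, RPMI/2% FBS; cpd 1 h (11-pt, 100–0.0017 μM; DMSO 0.37%); gramicidin 5 μM, 2 h; spin; supernatant IL-1β via HTRF.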

[1] abbreviates: Table B2, class symbols, read-out: hTHP-1 IC50.
The mark [2] stands for this setting: Homo sapiens, THP-1, Table B2, class symbols, read-out: hTHP-1 IC50.
The mark [3] stands for this setting: Homo sapiens, THP-1, Table B1, class symbols, read-out: Average IC50 of compounds in hTHP-1 assay: hTHP-1 IC50.
The mark [4] stands for this setting: Homo sapiens, THP-1, Table B4, class symbols, read-out: hTHP-1 IC50.

Turning to `CC(C)(O)c1sc(S(N)(=O)=NC(=O)Nc2c3c(nc4c2CCC4(C)C)CCC3)cc1F` (single isomer, unassigned) [Compound 613b, -N′-((3,3-dimethyl-1,2,3,5,6,7-hexahydrodicyclopenta [b,e]pyridin-8-yl)carbamoyl)-4-fluoro-5-(2-hydroxypropan-2-yl)thiophene-2-sulfonimidamide], the negative-log IC50 (pIC50) under setting [1] was 5.30 to 6.00.

In the case of `Cc1c(C(F)(F)F)nc2c(c1NC(=O)N=S(N)(=O)c1cnn3c1OC[C@H](O)C3)CCC2` (stereo partly drawn) [Example 601, (6R)-6-hydroxy-N′-((3-methyl-2-(trifluoromethyl)-6,7-dihydro-5H-cyclopenta[b]pyridin-4-yl)carbamoyl)-6,7-dihydro-5H-pyrazolo[5,1-b][1,3]oxazine-3-sulfonimidamide], the pIC50 (Homo sapiens, THP-1, Table B3, hTHP-1 assay, class symbols, read-out: IC50) is 4.52 to 5.30. As to `Cc1c(C(C)C)nc2c(c1NC(=O)N=S(N)(=O)c1sc(C(C)(C)O)cc1F)CCC2` (single isomer, unassigned) [Compound 645b, (S) or (R)-3-Fluoro-5-(2-hydroxypropan-2-yl)-N′-((2-isopropyl-3-methyl-6,7-dihydro-5H-cyclopenta[b]pyridin-4-yl)carbamoyl) thiophene-2-sulfonimidamide], the pIC50 under setting [1] was 4.52 to 5.30. For `Cc1c(C(F)(F)F)nc2c(c1NC(=O)N=[S@](N)(=O)c1ccn(C)n1)CCC2` (single isomer, unassigned) [Compound 730a], the pIC50 under setting [2] was 4.52 to 5.30.

For `CC(C)c1ncc(F)c(C(C)C)c1NC(=O)N=S(N)(=O)c1cnc(C(C)(C)O)s1` (stereo not drawn) [Compound 164, N′-((5-fluoro-2,4-diisopropylpyridin-3-yl)carbamoyl)-2-(2-hydroxypropan-2-yl)thiazole-5-sulfonimidamide], the pIC50 under setting [3] is 5.30 to 6.00. As to `CC(C)(O)c1sc(S(N)(=O)=NC(=O)Nc2c3c(nc4c2CCC4(C)C)CCC3)nc1CO` (single isomer, unassigned) [Compound 642b, (R) or (S)-N′-((3,3-dimethyl-1,2,3,5,6,7-hexahydrodicyclopenta [b,e]pyridin-8-yl)carbamoyl)-4-(hydroxymethyl)-5-(2-hydroxypropan-2-yl)thiazole-2-sulfonimidamide], the pIC50 under setting [1] was 6.70 to 7.40. `C[C@@H]1CCc2c1nc1c(c2NC(=O)N=S(N)(=O)c2nn(-c3ccccc3)cc2F)CCC1` (single isomer, unassigned) [Example 791, (R) or (S)-4-fluoro-N′-(((R)-3-methyl-1,2,3,5,6,7-hexahydrodicyclopenta[b,e]pyridin-8-yl)carbamoyl)-1-phenyl-1H-pyrazole-3-sulfonimidamide]: the pIC50 under setting [4] is 6.00 to 6.70. `C[C@@H]1CCc2c1nc1c(c2NC(=O)N=S(N)(=O)c2nn(C(F)F)cc2F)CCC1` (single isomer, unassigned) [Example 679, (R) or (S)-1-(difluoromethyl)-4-fluoro-N′-(((R)-3-methyl-1,2,3,5,6,7-hexahydrodicyclopenta[b,e]pyridin-8-yl)carbamoyl)-1H-pyrazole-3-sulfonimidamide]: the pIC50 (Table B3, hTHP-1 assay, class symbols, read-out: IC50) was 6.70 to 7.40. Take `CNS(=O)(=NC(=O)Nc1c2c(nc3c1CCC3)CCC2)c1ccc(CN(C)C)cc1` (single isomer, unassigned) [Compound 120b, (S) or (R)-4-((dimethylamino)methyl)-N′-((1,2,3,5,6,7-hexahydro-dicyclopenta[b,e]pryidin-8-yl)carbamoyl)-N-methylbenzene-sulfonimidamide]: the pIC50 (Table B1, numeric bounds, read-out: Average IC50 of compounds in hTHP-1 assay: hTHP-1 IC50) was under 4.52.

`Cc1c(C(F)(F)F)nc2c(c1NC(=O)N=S(N)(=O)c1cnc(C(C)(C)O)s1)CCC2` (single isomer, unassigned) [Compound 661b, (S) or (R)-2-(2-Hydroxypropan-2-yl)-N′-((3-methyl-2-(trifluoromethyl)-6,7-dihydro-5H-cyclopenta[b]pyridin-4-yl)carbamoyl)thiazole-5-sulfonimidamide]: the pIC50 under setting [1] was 4.52 to 5.30. Same read-out and setting: the value for `CC(C)(O)c1sc(S(N)(=O)=NC(=O)Nc2c3c(nc4c2CCC4)CCC3)cc1Cl` (single isomer, unassigned) [Compound 688b, (S) or (R)-4-Chloro-N′-((1,2,3,5,6,7-hexahydrodicyclopenta [b,e]pyridin-8-yl)carbamoyl)-5-(2-hydroxypropan-2-yl)thiophene-2-sulfonimidamide] was 4.52 to 5.30. Take `NS(=O)(=NC(=O)Nc1c2c(nc3c1CCC31CC1)CCC2)c1cnn(C(F)F)c1` (single isomer, unassigned) [Compound 638a, (R) or (S)-1-(Difluoromethyl)-N′-((1′,5′,6′,7′-tetrahydro-2′H-spiro[cyclopropane-1,3′-dicyclopenta[b,e]pyridin]-8′-yl)carbamoyl)-1H-pyrazole-4-sulfonimidamide]: the pIC50 under setting [2] was 5.30 to 6.00. In the case of `CC1(C)CCc2c1nc1c(c2NC(=O)N=S(N)(=O)c2ccn(-c3ccccc3)n2)CCC1` (stereo not drawn) [Compound 659, N′-((3,3-dimethyl-1,2,3,5,6,7-hexahydrodicyclopenta[b,e]pyridin-8-yl)carbamoyl)-1-phenyl-1H-pyrazole-3-sulfonimidamide], the pIC50 under setting [2] is 5.30 to 6.00. Take `CC(C)(O)c1nc(CCO)c(S(N)(=O)=NC(=O)Nc2c3c(nc4c2CCC4)CCC3)s1` (stereo not drawn) [Compound 118, N-((1,2,3,5,6,7-hexahydrodicyclopenta[b,e]pyridin-8-yl)carbamoyl)-4-(2-hydroxyethyl)-2-(2-hydroxypropan-2-yl)thiazole-5-sulfonimidamide]: the pIC50 under setting [3] was 5.30 to 6.00. For the molecule `Cc1c(C(F)(F)F)nc(C(F)(F)F)c(C)c1NC(=O)N=S(N)(=O)c1cc(C(C)(C)O)cs1` (stereo not drawn) [Example 738, N′-((3,5-dimethyl-2,6-bis(trifluoromethyl)pyridin-4-yl)carbamoyl)-4-(2-hydroxypropan-2-yl)thiophene-2-sulfonimidamide], the pIC50 under setting [4] is 5.30 to 6.00. `CC1CCc2c1nc1c(c2NC(=O)N=S(N)(=O)c2cc(C(C)(C)O)n(-c3ccccc3)n2)CCC1` (single isomer, unassigned) [Compound 664a, (S) or (R)-5-(2-Hydroxypropan-2-yl)-N′-((3-methyl-1,2,3,5,6,7-hexahydrodicyclopenta [b,e]pyridin-8-yl)carbamoyl)-1-phenyl)-1-pyrazole-3-sulfonimidamide]: the pIC50 (Homo sapiens, THP-1, Table B2, numeric bounds, read-out: hTHP-1 IC50) was under 4.52. Take `CC(C)(O)c1ccc(S(N)(=O)=NC(=O)Nc2c3c(nc4c2CCC4)CCC3)cn1` (single isomer, unassigned) [Compound 156b, (R) or (S)-N′-((1,2,3,5,6,7-hexahydrodicyclo-penta[b,e]pyridin-8-yl)carbamoyl)-6-(2-hydroxypropan-2-yl)pyridine-3-sulfonimidamide]: the pIC50 under setting [3] is 5.30 to 6.00. With `CC(C)n1cc(F)c(S(N)(=O)=NC(=O)Nc2c3c(nc4c2CCC4)CCC3)n1` (single isomer, unassigned) [Example 785, (R) or (S)-4-fluoro-N′-((1,2,3,5,6,7-hexahydrodicyclopenta [b,e]pyridin-8-yl)carbamoyl)-1-isopropyl-1H-pyrazole-3-sulfonimidamide], for the setting “Table B4, class symbols, read-out: hTHP-1 IC50”, the negative logarithm of the IC50 (pIC50) is 6.70 to 7.40. For `CC1CCc2c1nc1c(c2NC(=O)N=S(N)(=O)c2ccc(CN(C)C)cc2)CCC1` (single isomer, unassigned) [Compound 134ba, (R,R) or (R,S)-4-((dimethyl-amino)methyl)-N′-((3-methyl-1,2,3,5,6,7-hexa-hydrodicyclo-penta[b,e]pyridin-8-yl)carbamoyl)benzene-sulfonimidamide], the pIC50 under setting [3] was 5.30 to 6.00. For `Cc1c(C(F)(F)F)nc2c(c1NC(=O)N=S(N)(=O)c1cnn(C(F)F)c1)CCC2` (stereo not drawn) [Compound 617, 1-(Difluoromethyl)-N′-((3-methyl-2-(trifluoromethyl)-6,7-dihydro-5H-cyclopenta[b]pyridin-4-yl)carbamoyl)-1H-pyrazole-4-sulfonimidamide], the negative-log IC50 (pIC50) under setting [2] was 4.52 to 5.30.

On to `CC(C)c1ncc(F)c(C(C)C)c1NC(=O)N=S(N)(=O)c1cc(C(C)(C)O)cs1` (single isomer, unassigned) [Compound 148a, (R) or (S)-N′-((5-fluoro-2,4-diisopropylpyridin-3-yl)carbamoyl)-4-(2-hy-droxypropan-2-yl)thiophene-2-sulfonimidamide], for which, where the note is “Table B1, class symbols, read-out: Average IC50 of compounds in hTHP-1 assay: hTHP-1 IC50”, the pIC50 is 6.00 to 6.70. Consider `CC1(C)CCc2c1nc1c(c2NC(=O)N=S(N)(=O)c2sc(C(C)(O)CO)cc2F)CCC1` (stereo not drawn) [Compound 640, 5-(1,2-Dihydroxypropan-2-yl)-N′-((3,3-dimethyl-1,2,3,5,6,7-hexahydrodicyclopenta[b,e]pyridin-8-yl)carbamoyl)-3-fluorothiophene-2-sulfonimidamide], for which, under setting [1], the pIC50 is 6.00 to 6.70. On to `NS(=O)(=NC(=O)Nc1c2c(nc3c1CCC3)CCC2)c1ccn(CC(F)(F)F)n1` (single isomer, unassigned) [Compound 685b, (R) or (S)-N′-((1,2,3,5,6,7-hexahydrodicyclopenta [b,e]pyridin-8-yl)carbamoyl)-1-(2,2,2-trifluoroethyl)-1H-pyrazole-3-sulfonimidamide], for which, under setting [2], the pIC50 is 5.30 to 6.00. Take `CC(C)n1cc(S(N)(=O)=NC(=O)Nc2c3c(nc4c2CCC4(C)C)CCC3)c(CO)n1` (single isomer, unassigned) [Compound 653a, (R) or (S)-N′-((3,3-dimethyl-1,2,3,5,6,7-hexahydrodicyclopenta [b,e]pyridin-8-yl)carbamoyl)-3-(hydroxymethyl)-1-isopropyl-1H-pyrazole-4-sulfonimidamide]: under setting [2], the pIC50 was 4.52 to 5.30.
